Where two headings read alike, the source gives them in different places.
Molecular target: T1, human α7 nAChR (Homo sapiens, UniProt P36544)
T1 construct: host or cells: HEK
Experiment: Automated patch-clamp electrophysiology functional assay (Assay A)
Type: cell-based
Conditions: HEK cell line stably expressing human RIC-3 and human α7, IonFlux HT whole-cell population patch, with or without 40 μM acetylcholine
Procedure: The α7 nAChR positive allosteric modulator (PAM) activity of the present compounds may be tested using assays known in the art. The α7 nAChR PAMs described herein have activities in an automated patch-clamp electrophysiology functional assay as described in the examples. The assay was performed using the IonFlux HT in a whole-cell, population patch configuration. See Golden et al. Assay Drug Dev. Technol. (2011) 9:608-619. The compounds were assessed for their ability to modulate the function of the human α7 nAChR stably expressed in a HEK cell line both in the presence, and in the absence of the natural α7 agonist acetylcholine. By performing a series of such measurements at different concentrations, the effective concentration of the α7 nAChR PAMs (EC50) was determined. See Spencer et al. Assay Drug Dev. Technol. (2012) 10:313-324.
Direct activation of α7 (agonism), and potentiation of acetylcholine-evoked α7 currents was determined as follows:
Automated patch-clamp electrophysiology was performed using the IonFlux HT (Fluxion Biosciences Inc., San Francisco, CA) in the whole-cell, population patch configuration. Test compounds were assessed for their ability to modulate the function of the α7 nicotinic acetylcholine receptor both in the presence, and in the absence of the natural α7 agonist acetylcholine. A HEK cell line stably expressing both human RIC-3 and human α7 (PrecisION hnAChR α7/RIC-3, Eurofins Pharma, St. Charles, MO) was cultured in 175 cm^2 triple-layer tissue culture flasks to no more than 90% confluency in DMEM/F-12 growth media supplemented with 10% heat-inactivated fetal bovine serum, 1% non-essential amino acids, 0.625 μg/mL Puromycin, and 400 μg/mL Geneticin. Immediately prior to assay, cells were detached by first aspirating growth media, rinsing with Dulbecco's phosphate buffered saline, and then adding 10 mL of Accutase (Innovative Cell Technologies, San Diego, CA) to the flask and then incubating at 37° C. for 5 minutes. Detached cells were then recovered by the addition of 40 mL of CHO-serum-free media supplemented with 25 mM HEPES, and rocked gently in a 50 mL conical tube for 20 minutes prior to patch-clamp assay. After recovery, cells were pelleted by centrifugation at 1,000 RPM for 1 minute in a compact bench top centrifuge; recovery media was aspirated and cells were resuspended in external recording solution (150 mM NaCl, 5 mM KCl, 2 mM CaCl2, 1 mM MgCl2, 10 mM HEPES, 12 mM dextrose) to a density of 5.0×10^6 cells/mL. The cell suspension was added to the cell inlet wells on an IonFlux HT population patch plate which had previously been rinsed and primed with deionized H2O. Test compounds were serially diluted in DMSO and then resuspended to the final test concentration in external recording solution, with, or without 40 μM acetylcholine added to the external recording solution; test compounds were then transferred to the IonFlux HT population patch plate. Internal recording solution (110 mM TrisPO4, 28 mM TrisBase, 0.1 mM CaCl2, 2 mM MgCl2, 11 mM EGTA, 4 mM MgATP) was added to the internal recording solution inlet wells on the IonFlux HT patch plate previously loaded with cells and test compounds, and the plate loaded into the IonFlux HT instrument. A protocol was executed on the IonFlux HT to trap the cells, break into the cells, and establish the whole-cell recording configuration; cells were voltage-clamped at a holding potential of −60 mV for the duration of the experiment, all experiments were conducted at room temperature, and the IonFlux HT injection pressure was 8 psi for solution applications. Upon establishing the whole-cell configuration, external recording solution was perfused into the recording chambers for 120 seconds and then 40 μM acetylcholine was applied for 1 second and immediately washed off with external recording solution for 60 seconds. […]

T1 sequence (P36544 23-502): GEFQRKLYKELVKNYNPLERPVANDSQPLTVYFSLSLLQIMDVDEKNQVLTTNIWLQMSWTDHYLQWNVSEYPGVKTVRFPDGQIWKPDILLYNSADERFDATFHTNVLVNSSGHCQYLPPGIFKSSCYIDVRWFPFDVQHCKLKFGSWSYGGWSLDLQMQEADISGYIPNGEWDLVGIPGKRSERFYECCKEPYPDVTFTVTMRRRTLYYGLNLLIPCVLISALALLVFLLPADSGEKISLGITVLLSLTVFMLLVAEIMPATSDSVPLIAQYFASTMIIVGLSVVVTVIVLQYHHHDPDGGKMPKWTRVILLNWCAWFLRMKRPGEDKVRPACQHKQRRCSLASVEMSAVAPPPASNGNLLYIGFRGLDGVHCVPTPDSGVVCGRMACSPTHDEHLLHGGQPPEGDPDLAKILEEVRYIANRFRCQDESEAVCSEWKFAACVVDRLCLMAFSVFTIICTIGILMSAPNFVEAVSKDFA

Row | Compound | EC50 (read-out: α7 nAChR EC50) | EC50 (read-out: α7 nAChR Potency)
1 | COc1cc(OC[C@H]2CC23CCN(S(N)(=O)=O)CC3)nc(OCC(F)(F)F)c1 [Example A16, (1S)-1-({[4-methoxy-6-(2,2,2-trifluoroethoxy)pyridin-2-yl]oxy}methyl)-6-azaspiro[2.5]octane-6-sulfonamide] | 190 nM | 100 to 500 nM
2 | NS(=O)(=O)N1CCC2(CC1)C(COc1ccnc(OCC(F)(F)F)c1)C2(F)F (single isomer, unassigned) [Example A34, 1,1-difluoro-2-({[2-(2,2,2-trifluoroethoxy)pyridin-4-yl]oxy}methyl)-6-azaspiro[2.5]octane-6-sulfonamide] | 550 nM | 500 to 5000 nM
3 | Cc1cc(C)n(-c2cccc(OC[C@H]3CC34CCN(S(N)(=O)=O)CC4)n2)n1 [Example A20, (1S)-1-({[6-(3,5-dimethyl-1H-pyrazol-1-yl)pyridin-2-yl]oxy}methyl)-6-azaspiro[2.5]octane-6-sulfonamide] | 1800 nM | 500 to 5000 nM
4 | NS(=O)(=O)N1CCC2(CC1)CC2COc1ccnc(C(F)(F)F)c1 (stereo not drawn) [Example 5, 1-({[2-(Trifluoromethyl)pyridin-4-yl]oxy}methyl)-6-azaspiro[2.5]octane-6-sulfonamide] | 3200 nM | 500 to 5000 nM
5 | COc1ccc(Cl)cc1OCC1CC12CCN(S(N)(=O)=O)CC2 (racemic) [Example A42, 1-[(5-chloro-2-methoxyphenoxy)methyl]-6-azaspiro[2.5]octane-6-sulfonamide] | 120 nM | 100 to 500 nM
6 | NS(=O)(=O)N1CCC2(CC1)C[C@H]2COc1noc(-c2ccccc2)n1 [Example 4, (1R)-1-{[(5-Phenyl-1,2,4-oxadiazol-3-yl)oxy]methyl}-6-azaspiro[2.5]octane-6-sulfonamide] | 580 nM | 500 to 5000 nM
7 | COc1ccc(F)c(OCC2C(F)(F)C23CCN(S(N)(=O)=O)CC3)c1 (single isomer, unassigned) [Example A31, 1,1-difluoro-2-[(2-fluoro-5-methoxyphenoxy)methyl]-6-azaspiro[2.5]octane-6-sulfonamide] |  | ≤ 100 nM
8 | Cc1ccc(C)c(NC[C@@H]2C(F)(F)C23CCN(S(N)(=O)=O)CC3)c1 [Example A60, (2R)-2-{[(2,5-dimethylphenyl)amino]methyl}-1,1-difluoro-6-azaspiro[2.5]octane-6-sulfonamide] | 11 nM | ≤ 100 nM
9 | NS(=O)(=O)N1CCC2(CC1)C[C@H]2COc1cccnc1OCC(F)(F)F [Example 8, (1R)-1-({[2-(2,2,2-Trifluoroethoxy)pyridin-3-yl]oxy}methyl)-6-azaspiro[2.5]octane-6-sulfonamide] | 1200 nM | 500 to 5000 nM
10 | COc1ccc(F)c(OCC2CC23CCN(S(N)(=O)=O)CC3)c1 (racemic) [Example A26, 1-[(2-fluoro-5-methoxyphenoxy)methyl]-6-azaspiro[2.5]octane-6-sulfonamide] | 650 nM | 500 to 5000 nM
11 | NS(=O)(=O)N1CCC2(CC1)CC2COc1ccc(F)cc1C(F)(F)F (single isomer, unassigned) [Example A7, 1-{[4-fluoro-2-(trifluoromethyl)phenoxy]methyl}-6-azaspiro[2.5]octane-6-sulfonamide] | 1200 nM | 500 to 5000 nM
12 | Cc1cc(OCC2CC23CCN(S(N)(=O)=O)CC3)n(-c2ccccc2)n1 (racemic) [Example A14, 1-{[(3-methyl-1-phenyl-1H-pyrazol-5-yl)oxy]methyl}-6-azaspiro[2.5]octane-6-sulfonamide] | 700 nM | 500 to 5000 nM
13 | NS(=O)(=O)N1CCC2(CC1)C(COc1cc(F)ccc1C(F)(F)F)C2(F)F (single isomer, unassigned) [Example A8, 1,1-difluoro-2-{[5-fluoro-2-(trifluoromethyl)phenoxy]methyl}-6-azaspiro[2.5]octane-6-sulfonamide] | 89 nM | ≤ 100 nM
14 | NS(=O)(=O)N1CCC2(CC1)C[C@@H]2COc1cccc(OCC(F)(F)F)n1 [Example A38, (1S)-1-({[6-(2,2,2-trifluoroethoxy)pyridin-2-yl]oxy}methyl)-6-azaspiro[2.5]octane-6-sulfonamide] | 720 nM | 500 to 5000 nM
15 | NS(=O)(=O)N1CCC2(CC1)C(COc1ccnc(OC(F)F)c1)C2(F)F (single isomer, unassigned) [Example 2, 2-({[2-(Difluoromethoxy)pyridin-4-yl]oxy}methyl)-1,1-difluoro-6-azaspiro[2.5]octane-6-sulfonamide] | 71 nM | ≤ 100 nM
16 | NS(=O)(=O)N1CCC2(CC1)C[C@H]2COCc1cccc(OCC(F)(F)F)n1 [Example 9, (1R)-1-({[6-(2,2,2-Trifluoroethoxy)pyridin-2-yl]methoxy}methyl)-6-azaspiro[2.5]octane-6-sulfonamide] | 1200 nM | 500 to 5000 nM
17 | COc1cc(OC[C@H]2CC23CCN(S(N)(=O)=O)CC3)ccc1F [Example A5, (1S)-1-[(4-fluoro-3-methoxyphenoxy)methyl]-6-azaspiro[2.5]octane-6-sulfonamide] | 6200 nM | 5000 to 50000 nM
18 | COc1ccc(Cl)cc1OCC1C(F)(F)C12CCN(S(N)(=O)=O)CC2 (single isomer, unassigned) [Example A2, 2-[(5-chloro-2-methoxyphenoxy)methyl]-1,1-difluoro-6-azaspiro[2.5]octane-6-sulfonamide] | 25 nM | ≤ 100 nM
19 | CC(C)(C)c1cccc(OC[C@@H]2CC23CCN(S(N)(=O)=O)CC3)n1 [Example A55, (1R)-1-{[(6-tert-butylpyridin-2-yl)oxy]methyl}-6-azaspiro[2.5]octane-6-sulfonamide] |  | 500 to 5000 nM
20 | COc1ccc(Cl)cc1S(=O)(=O)C[C@@H]1CC12CCN(S(N)(=O)=O)CC2 [Example 12, (1R)-1-{[(5-Chloro-2-methoxyphenyl)sulfonyl]methyl}-6-azaspiro[2.5]octane-6-sulfonamide] | 1600 nM | 500 to 5000 nM
21 | NS(=O)(=O)N1CCC2(CC1)C[C@H]2COc1cccc(OC(F)(F)F)c1 [Example A24, (1R)-1-{[3-(trifluoromethoxy)phenoxy]methyl}-6-azaspiro[2.5]octane-6-sulfonamide] | 180 nM | 100 to 500 nM
22 | NS(=O)(=O)N1CCC2(CC1)C[C@@H]2COc1cccc(OC(F)(F)F)c1 [Example A25, (1S)-1-{[3-(trifluoromethoxy)phenoxy]methyl}-6-azaspiro[2.5]octane-6-sulfonamide] | 1900 nM | 500 to 5000 nM
23 | COc1ccc(Cl)cc1NC[C@@H]1CC12CCN(S(N)(=O)=O)CC2 [Example 14, (1R)-1-{[(5-Chloro-2-methoxyphenyl)amino]methyl}-6-azaspiro[2.5]octane-6-sulfonamide] | 48 nM | ≤ 100 nM
24 | NS(=O)(=O)N1CCC2(CC1)C(CSc1nnnn1-c1ccccc1)C2(F)F (single isomer, unassigned) [Example A62, 1,1-difluoro-2-{[(1-phenyl-1H-tetrazol-5-yl)sulfanyl]methyl}-6-azaspiro[2.5]octane-6-sulfonamide] | 2000 nM | 500 to 5000 nM
25 | COc1cc(OC[C@@H]2CC23CCN(S(N)(=O)=O)CC3)ccc1F [Example A4, (1R)-1-[(4-fluoro-3-methoxyphenoxy)methyl]-6-azaspiro[2.5]octane-6-sulfonamide] |  | 500 to 5000 nM
26 | CN1CCN(c2cccc(OC[C@@H]3CC34CCN(S(N)(=O)=O)CC4)n2)CC1 [Example A46, (1R)-1-({[6-(4-methylpiperazin-1-yl)pyridin-2-yl]oxy}methyl)-6-azaspiro[2.5]octane-6-sulfonamide] |  | 500 to 5000 nM
